Where two headings read alike, the source gives them in different places.
How the values were obtained:
Test in all cases: biochemical
[1] = biological target: T1, QacR (Staphylococcus aureus, UniProt P0A0N3, E120A)
[2] = biological target: T2, QacR (Staphylococcus aureus, UniProt P0A0N3, E90A)
[3] = biological target: T1, QacR; remark: listed apart in the source
[4] = biological target: T2, QacR; remark: listed apart in the source

## Cc1cc(N)c2ccccc2[n+]1CCCCCCCCCC[n+]1c(C)cc(N)c2ccccc21 [dequalinium]
[1]
  Kd: 2.4 ± 0.6 µM
[2]
  Kd: 1.8 ± 0.07 µM

## CC[n+]1c(-c2ccccc2)c2cc(N)ccc2c2ccc(N)cc21 [ethidium]
[3]
  Kd: 1.25 ± 0.15 µM
[4]
  Kd: 1.03 ± 0.09 µM

## CN(C)c1ccc(C(=C2C=CC(=[N+](C)C)C=C2)c2ccccc2)cc1 [malachite green]
[3]
  Kd: 0.98 ± 0.32 µM
[4]
  Kd: 1.49 ± 0.1 µM

## CCN=c1cc2oc3cc(NCC)c(C)cc3c(-c3ccccc3C(=O)OCC)c-2cc1C [rhodamine 6G]
[3]
  Kd: 0.17 ± 0.01 µM
[4]
  Kd: 0.21 ± 0.02 µM

Reference: article PMC3022030 (PLoS ONE, 2011)
